Experimental findings from US5932568A, “6-methoxy-1H-benzotriazole-5-carboxamide derivatives and pharmaceutical compositions containing them” (priority 1994, dated 1999) are described below.

For orientation: inhibition in vivo means the share of the control response that was lost under treatment.

In assay [1] the test system is apomorphine-induced vomiting. In words: Inhibitory effect on apomorphine-induced vomiting. The assay is classed as in vivo, dogs (Beagle). To be noted: Canis lupus familiaris, po, 1 h, 2 h before s.c. apomorphine hydrochloride 0.3 mg/kg, emetic episodes 1 h; for inhibition in vivo at 1 mg/kg: 1.0 mg/kg oral. The method, then:
A group of 3-4 dogs (Beagle, 8-15 kg) was used for examining inhibitory effects of the test compounds on apomorphine-induced vomiting according to the method of Chen and Ensor [cf. J. Pharmacol. Exp. Ther., 98, 245-250 (1950)]. Test compounds, dissolved or suspended in a 0.5% tragacanth solution were orally administered two hours before the subcutaneous administration of apomorphine hydrochloride (0.3 mg/kg). Then, the emetic episodes were counted for one hour. The emetic episodes of the compound-treated group were compared with those of the corresponding control (non-dosed) group, and the percent inhibition was calculated.

In the next assay the test system is exploratory activity. The experiment in a line: Inhibitory effect on exploratory activity. Format: in vivo, male mice (Std-ddy strain). The note with it: Mus musculus; oral, 2 h before test; 3 min counting; Probit; read-out: ID50 (inhibition of exploratory activity). An excerpt:
A group of 5 male mice (Std-ddy strain, 20-25 g) was used. Two hours after oral administration of the test compounds in the form of 0.5% tragacanth solution or suspension, mice were placed individually in a test box (23×35×30 cm) on Animex activity meter (Farad Co.). Immediately thereafter, activity counting was started and lasted for three minutes. The mean counts of the compound-treated group were compared with those of the corresponding control (non-dosed) group, and the percent inhibition was calculated and the 50% inhibitory dose (ID50) was obtained according to the method of Probit.

The subject of a further assay is gastric emptying. The experiment in a line: Gastric emptying enhancing activity. The assay is classed as in vivo, Male Wistar rats. To be noted: 60 min before test meal, increase from control. The method, then: The test was carried out according to the method of Scarpignato et al. [cf. Arch. Int. Pharmacodyn., 246, 286-294 (1980)]. Male Wistar rats, weighing 130-150 g, were fasted for 18 hours before experimentation, and 1.5 ml of a test meal (phenol red 0.05% in a 1.5% aqueous methylcellulose solution) was orally given. Fifteen minutes after administration of the meal the stomach was removed and the amount of phenol red remaining in the stomach was measured. The test compounds, dissolved or suspended in a 0.5% tragacanth solution, were orally administered 60 minutes before administration of the test meal. The rate of gastric emptying was calculated according to the amount of phenol red remaining in the stomach, and the activity of the test compounds was expressed in terms of increase in the emptying rate from the control.

For assay [2], the system named is gastrointestinal motility. The experiment in a line: Gastrointestinal motility improving activity (overall statement). The note with it: in vivo.
The test system of assay [3] is gastric emptying delayed by cholecystokinin. The experiment in a line: Effect on gastric emptying delayed by cholecystokinin. Format: in vivo, Male Wistar rats. The note with it: for Effect on gastric emptying delayed by cholecystokinin: cholecystokinin 3 μg/kg s.c. On the set-up: key to Effect on gastric emptying delayed by cholecystokinin: +: slightly to moderately improved; ++: markedly improved; ±: no improvement. The method, then: (§1) The test was carried out according to the method of Scarpignato et al. [c f. Arch. int. Pharmacodyn., 246, 286-294 (1980)]. Male Wistar rats, weighing 130-150 g, were fasted for 18 hours before experimentation, and 1.5 ml of a test meal (phenol red 0.05% in a 1.5% aqueous methylcellulose solution) was orally given. Fifteen minutes after administration of the meal the stomach was removed and the amount of phenol red remaining in the stomach was measured. The test compounds, 10, 30 or 100 mg/kg, each dissolved or suspended in a 0.5% tragacanth solution, were orally administrated 60 minutes before administration of the test meal. Gastric emptying was delayed by subcutaneous administration of cholesystokinin 3 μg/kg or morphine 3 mg/kg 5 minutes before the administration of phenol red. The number of animals used was 5 to 10.

Assay [4] concerns gastric emptying delayed by morphine. The experiment in a line: Effect on gastric emptying delayed by morphine. To be noted: for Effect on gastric emptying delayed by morphine: morphine 3 mg/kg s.c. Format: in vivo, Male Wistar rats. Further details: key to Effect on gastric emptying delayed by morphine: +: slightly to moderately improved; ++: markedly improved; ±: no improvement. How it is done:
as §1

Assay [5] relates to gastrointestinal motility. In words: Effect on gastrointestinal motility in conscious dog. The assay is classed as in vivo, beagle dogs. The note with it: 3 and 10 mg/kg intragastric; fed state, conscious dogs. The method, then: Four healthy beagle dogs per group of both sexes weighing 10 to 12 kg were anesthetized with an i.v. injection of pentobarbital sodium (Nembutal, 30 mg/kg b. wt.), and the abdominal cavity was opened under aseptic conditions. Extraluminal force transducers were sutured onto the seromuscular layer of the gastric antrum, 3 cm proximal to the pyloric ring, the duodenum, the jejunum, the […] terminal ileum in a manner to measure circular muscle contraction, following the method of Ito et al., [cf. Gastrointerol. Japan. 12, 275-283 (1977).] For intragastric (i.g.) administration of drugs, a Silastic tube (Fr. size 6.5) was inserted into the lumen of the gastric body, and the tube was fixed onto the adjacent serosa. The lead wires of these transducers and gastric tube were taken out of abdominal cavity and then brought out through a skin incision made between the scapulae. The outer ends of the lead wires were sutured onto the skin adjacent to the skin incision. After the operation, jacket protector was placed on the dog to protect the lead wires and the Silastic tube. The dogs were housed in individual experimental cages and given dog food at 10 a.m., and water was given freely. Test compounds at 3 and 10 mg/kg were suspended in 0.5% tragacanth solution and given i.g. through the indwelling Silastic tube.

Where a name gives a salt, the structure may show the parent alone. A value given as a limit tells only on which side of the number the result lay.

`CCN1CCCCC(NC(=O)c2cc3nnn(C)c3cc2OC)C1` (stereo not drawn) [Compound 1, N-(1-ethyl-1H-hexahydroazepin-3-yl)-6-methoxy-1-methyl-1H-benzotriazole-5-carboxamide] displayed an inhibition in vivo at 1 mg/kg in assay [1] of 77%. For the same compound, the ED50 in the assay on exploratory activity was more than 100 mg/kg.

Turning to `CCN1CCCC[C@H](NC(=O)c2cc3nnn(C)c3cc2OC)C1` [Compound 3, (S)-N-(1-ethyl-1H-hexahydroazepin-3-yl)-6-methoxy-1-methyl-1H-benzotriazole-5-carboxamide], at 1 mg/kg the inhibition in vivo in assay [1] was 36%.

The compound `CCN1CCCCC(NC(=O)c2cc3nnn(CC)c3cc2OC)C1` (stereo not drawn) [Compound 4, 1-ethyl-N-(1-ethyl-1H-hexahydroazepin-3-yl)-6-methoxy-1H-benzotriazole-5-carboxamide] came in with an inhibition in vivo at 1 mg/kg in assay [1] of 89%. The “Increase in gastric emptying rate” value with gastric emptying (3 mg/kg oral) worked out at 31%. Further, the ED50 with exploratory activity was more than 100 mg/kg.

Regarding `CCN1CCCC[C@@H](NC(=O)c2cc3nnn(CC)c3cc2OC)C1` [Compound 5, (R)-1-ethyl-N-(1-ethyl-1H-hexahydroazepin-3-yl)-6-methoxy-1H-benzotriazole-5-carboxamide], testing at 1 mg/kg in assay [1] gave an inhibition in vivo of 100%. Besides, the “Increase in gastric emptying rate” value with gastric emptying (3 mg/kg oral) amounted to 35%.

In assay [1] (0.3 mg/kg oral), `CCN1CCCCC(NC(=O)c2cc3nn[nH]c3cc2OC)C1` (stereo not drawn) [Compound 6, N-(1-ethyl-1H-hexahydroazepin-3-yl)-6-methoxy-1H-benzotriazole-5-carboxamide] yielded an inhibition in vivo at 0.3 mg/kg of 71%. The compound further yielded an inhibition in vivo at 1 mg/kg in assay [1] of 100%. Besides, the “Increase in gastric emptying rate” value in the assay with gastric emptying (3 mg/kg oral) is given as 28%. The ED50 with exploratory activity was more than 100 mg/kg.

As to `CCN1CCCC[C@@H](NC(=O)c2cc3nn[nH]c3cc2OC)C1` [Compound 7a, (R)-N-(1-ethyl-1H-hexahydroazepin-3-yl)-6-methoxy-1H-benzotriazole-5-carboxamide], 0.1 mg/kg produced 73% inhibition in vivo in assay [1] (0.1 mg/kg oral). In assay [1], this compound registered an inhibition in vivo at 1 mg/kg of 100%. Besides, in the assay with exploratory activity, the ED50 is more than 100 mg/kg. For the same compound, in assay [2], the “Gastrointestinal motility improving activity (in words)” value is “especially excellent gastrointestinal motility improving activity”.

With `CCN1CCCC[C@H](NC(=O)c2cc3nn[nH]c3cc2OC)C1` [Compound 8b, (S)-N-(1-ethyl-1H-hexahydroazepin-3-yl)-6-methoxy-1H-benzotriazole-5-carboxamide.3/2 fumarate], 1 mg/kg produced 19% inhibition in vivo in assay [1].

The compound `CCN1CCCCCC(NC(=O)c2cc3nn[nH]c3cc2OC)C1` (stereo not drawn) [Compound 9, N-(1-ethyl-1H-heptahydroazocin-3-yl)-6-methoxy-1H-benzotriazole-5-carboxamide] had an inhibition in vivo at 1 mg/kg in assay [1] of 100%.

Take `CCN1CCCCCCC(NC(=O)c2cc3nn[nH]c3cc2OC)C1` (stereo not drawn) [Compound 10, N-(1-ethyl-1H-octahydroazonin-3-yl)-6-methoxy-1H-benzotriazole-5-carboxamide]: in assay [1], testing at 1 mg/kg gave an inhibition in vivo of 100%. Further, in the assay with gastric emptying (3 mg/kg oral), the “Increase in gastric emptying rate” value is on record as 46%.

In assay [1], `COc1cc2[nH]nnc2cc1C(=O)NC1CCCCN(CC2CC2)C1` (stereo not drawn) [Compound 11, N-(1-cyclopropylmethyl-1H-hexahydroazepin-3-yl)-6-methoxy-1H-benzotriazole-5-carboxamide] gave an inhibition in vivo at 1 mg/kg of 92%. Besides, in the assay on gastric emptying (3 mg/kg oral), the “Increase in gastric emptying rate” value came out at 34%.

With `COc1cc2[nH]nnc2cc1C(=O)N[C@@H]1CCCCN(CC2CC2)C1` [Compound 12, (R)-N-(1-cyclopropylmethyl-1H-hexahydroazepin-3-yl)-6-methoxy-1H-benzotriazole-5-carboxamide], testing at 1 mg/kg in assay [1] gave an inhibition in vivo of 92%.

On to `COc1cc2c(cc1C(=O)N[C@@H]1CCCCN(CC3CC3)C1)nnn2C` [Compound 13, (R)-N-(1-cyclopropylmethyl-1H-hexahydroazepin-3-yl)-6-methoxy-1-methyl-1H-benzotriazole-5-carboxamide], for which testing at 1 mg/kg in assay [1] gave an inhibition in vivo of 73%.

`CCN1CCCCCC(NC(=O)c2cc3nnn(C)c3cc2OC)C1` (stereo not drawn) [Compound 14, N-(1-ethyl-1H-heptahydroazocin-3-yl)-6-methoxy-1-methyl-1H-benzotriazole-5-carboxamide] yielded an inhibition in vivo at 1 mg/kg in assay [1] of 100%. Moreover, in the assay on gastric emptying (3 mg/kg oral), the “Increase in gastric emptying rate” value is listed as 32%.

`CCN1CCCCCCC(NC(=O)c2cc3nnn(C)c3cc2OC)C1` (stereo not drawn) [Compound 15, N-(1-ethyl-1H-octahydroazonin-3-yl)-6-methoxy-1-methyl-1H-benzotriazole-5-carboxamide] registered an inhibition in vivo at 1 mg/kg in assay [1] of 71%.

`CCN(CC)CCNC(=O)c1cc(Cl)c(N)cc1OC.Cl.O` [Compound A, 4-Amino-5-chloro-N-[2-(diethylamino)ethyl]-2-methoxybenzamide hydrochloride monohydrate, reference compound] returned an inhibition in vivo at 0.5 mg/kg in assay [1] (0.5 mg/kg oral) of 56%. Also, the inhibition in vivo at 1 mg/kg in assay [1] was determined as 86%. For the same compound, the “Increase in gastric emptying rate” value in the assay with gastric emptying (2 mg/kg oral) was 21%; with gastric emptying (5 mg/kg oral), 26%; in the assay with gastric emptying (10 mg/kg oral) it was 31%. The “Effect on gastric emptying delayed by cholecystokinin” value in assay [3] (10 mg/kg oral), in assay [3] (30 mg/kg oral) and in assay [3] (100 mg/kg oral) was “±” in each case. In assay [3] (compound 2: 30 or 100 mg/kg, 7b and Compound A: 10, 30 or 100 mg/kg), the “Gastric emptying delayed by cholecystokinin (in words)” value was “did not show an improving activity against the delay in gastric emptying induced by cholecystokinin or morphine”. Further, the “Effect on gastric emptying delayed by morphine” value in assay [4] (10 mg/kg oral), in assay [4] (30 mg/kg oral) and in assay [4] (100 mg/kg oral) was “±” throughout. Besides, the “Gastric emptying delayed by morphine (in words)” value in assay [4] (10, 30 or 100 mg/kg) is recorded as “did not show an improving activity against the delay in gastric emptying induced by cholecystokinin or morphine”. For the same compound, the Interdigestive migrating like-contractions entry in assay [5] is listed as “did not cause interdigestive migrating contractions at all”. For the same compound, the ED50 in the assay with exploratory activity amounted to 22.4 mg/kg.
